Measurements: US20250382322A1, “DIAGNOSTICS FOR DETECTING ECTO-5'-NUCLEOTIDASE (CD73)” (EBERHARD KARLS UNIVERSITÄT TÜBINGEN, priority 2022, published 2025)

Assays:
[1] = target: T1, recombinant soluble rat CD73 (Rattus norvegicus, UniProt P21588); assay: CD73 enzyme inhibition assay with [2,8-3H]AMP, soluble rat CD73; format: biochemical; conditions: [2,8-3H]AMP (5 μM) as substrate; read-out: Rat soluble CD73 Ki ± SEM
T1 construct: glutathione-S-transferase fusion protein of soluble rat CD73; glutathione-S-transferase (GST); made in house; host or cells: Sf9 insect cells
T1 sequence (P21588 29-551 limits assumed): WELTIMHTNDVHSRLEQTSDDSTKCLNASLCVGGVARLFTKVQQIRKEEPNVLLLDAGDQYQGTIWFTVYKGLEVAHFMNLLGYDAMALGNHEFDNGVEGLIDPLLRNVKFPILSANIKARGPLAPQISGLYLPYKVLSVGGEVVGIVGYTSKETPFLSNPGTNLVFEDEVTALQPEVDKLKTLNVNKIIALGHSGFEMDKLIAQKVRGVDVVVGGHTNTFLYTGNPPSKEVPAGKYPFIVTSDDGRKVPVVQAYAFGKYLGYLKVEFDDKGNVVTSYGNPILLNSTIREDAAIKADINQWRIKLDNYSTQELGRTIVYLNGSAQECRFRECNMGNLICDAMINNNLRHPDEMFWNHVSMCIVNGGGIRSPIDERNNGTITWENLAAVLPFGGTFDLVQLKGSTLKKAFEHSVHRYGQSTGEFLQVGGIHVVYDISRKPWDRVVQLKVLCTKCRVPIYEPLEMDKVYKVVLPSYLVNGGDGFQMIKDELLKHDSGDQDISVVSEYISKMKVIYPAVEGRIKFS
Description: Compound 2b, its precursor 1, and 20 were investigated for their CD73-inhibitory potency using tritium-labeled AMP as a substrate.^20 After incubation with CD73, non-hydrolyzed substrate and inorganic phosphate were precipitated using a solution of lanthanum chloride, and the precipitate was separated from the solution containing the reaction product [2,8-^3H]adenosine by filtration through GF/B glass fiber filters (WhatmanTM GE Healthcare, Chicago, IL, USA) using a cell harvester (M-48, Brandel, Gaitherburg, MD, USA). The filtrates (ca. 1.8 mL each) were transferred to scintillation vials, scintillation cocktail ULTIMA Gold XR (PerkinElmer, Waltham, MA, USA) was added (5 mL), and the radioactivity esd quantified by scintillation counting. CD73 preparations were (1) recombinant soluble human CD73,^13 (2) recombinant soluble rat CD73,^21 both expressed in Spodoptera frugiperda 9 (Sf) cells, (3) membrane preparations of MDA-MB-231 cells,^16 a human triple-negative breast cancer cell line with high expression of CD73,^18 and (4) membrane preparations of the 4T1.2 cell line, a mouse CD73-expressing breast cancer cell line.^22 The potency of the compounds was determined by measurements of full concentration-inhibition curves. K values were calcuated from the obtained IC50 values employing the Cheng-Prusoff equation.^23 […]

human P2Y1 receptor = target: T2, human P2Y1 receptor (Homo sapiens, UniProt P47900); assay: Calcium mobilization assay at P2Y1 receptor; format: cell-based; conditions: 1231N1 astrocytoma cells
T2 construct: expressed in transfected cells; host or cells: 1321N1 astrocytoma cells (printed '1231N1 astrocytomna cells')
Description: Interaction of 2 with the ADP-activated human P2Y1 receptor, which is Gq protein-coupled, was determined by calcium mobilization assays. The receptor was stably expressed in 1231N1 astrocytomna cells^25, 26 (for results see Table 2). Compound 20 was not tested at the P2Y1 receptor since the fluorescent compound would interfere with the calcium mobilization assay.

T2 sequence (P47900 whole entry): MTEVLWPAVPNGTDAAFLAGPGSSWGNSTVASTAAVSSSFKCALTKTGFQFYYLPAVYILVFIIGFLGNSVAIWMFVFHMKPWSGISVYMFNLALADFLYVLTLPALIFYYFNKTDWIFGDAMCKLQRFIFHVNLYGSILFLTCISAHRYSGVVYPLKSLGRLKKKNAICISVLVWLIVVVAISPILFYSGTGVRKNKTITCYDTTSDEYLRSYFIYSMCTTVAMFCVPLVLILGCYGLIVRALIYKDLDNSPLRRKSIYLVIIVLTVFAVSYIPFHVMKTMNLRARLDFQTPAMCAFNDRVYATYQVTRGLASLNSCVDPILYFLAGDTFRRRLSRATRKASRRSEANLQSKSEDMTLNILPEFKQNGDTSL

Ki [1] [nM]	IC50 (human P2Y1 receptor; 2-methylthio-ADP as agonist at EC80 (3 μM), read-out: Inhibition P2Y1 receptor IC50) [nM]	EC50 (human P2Y1 receptor; read-out: Activation P2Y1 receptor EC50) [nM]	SMILES
18 ± 1.43			O=C(NCCCCCCNC(=O)c1ccc2c(c1)C1(OC2=O)c2ccc(O)cc2Oc2cc(O)ccc21)c1ccc(CNc2nc(Cl)nc3c2ncn3[C@@H]2O[C@H](COP(=O)(O)CP(=O)(O)O)[C@@H](O)[C@H]2O)cc1 [Compound 20, (((((2R,3S,4R,5R)-5-(2-chloro-6-((4-((6-(3′,6′-dihydroxy-3-oxo-3H-spiro[isobenzofuran-1,9′-xanthene]-6-carboxamido)-hexyl)carbamoyl)benzyl)amino)-9H-purin-9-yl)-3,4-dihydroxytetrahydrofuran-2-yl)methoxy)(hydroxy)phosphoryl)methyl)phosphonic acid]
6.09 ± 0.74	> 10000	> 10000	CCCN(Cc1ccc(-c2cn(CCF)nn2)cc1)c1nc(Cl)nc2c1ncn2[C@@H]1O[C@H](COP(=O)(O)CP(=O)(O)O)C(O)C1O (stereo partly shown) [Compound 2]
